Drawing on patent US4599362A, “2-aryl-ethyl ether derivatives and insecticidal and acaricidal agents containing said derivatives” (priority 1980, dated 1986), this text covers LC50, LD50 and mortality for 15 compounds.

One data set in a line: Test 8: Fish Toxicity. Type of data set: in vivo. The conditions noted are these: carp, water, carps, concentration at which 1/2 of the test fishes were killed, read-out: Fish Toxicity, TLm48. Here is the method: A water tank having a width of 60 cm, a length of 30 cm and a height of 40 cm was filled with water, and 10 yearling carps having a body length of about 5 cm were set free in the tank and adapted to the environment in the tank. A test compound was applied so that the concentration in water was 10, 1, or 0.1 ppm. After 48 hours, the numbers of killed and living carps were counted and the influences on the fishes were examined.

Data set [1] can be described thus: Test 9: Toxicity Test (acute oral, mice). Particulars: mouse, in vivo, po. Summed up:
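Compound dissolved or suspended in corn oil was given orally to male mice of 19–23 g body weight, at 0.2 ml per 10 g. Deaths and effects were recorded after 7 days.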

The subject of the next data set is green peach aphids. Put plainly: Test 5: Effect on green peach Aphid. The data set is classed as in vivo. The conditions noted are these: Myzus persicae, 24 hours, mortality class, read-out: Insecticidal Activity. Here is the method: To a mixture of 20 parts of the compound of the present invention and 20 parts of Sorpol SM-200 (registered trademark for the product supplied by Toho Chemical Industrial Co., Ltd.) was added 60 parts of xylol, and the mixture was sufficiently blended. The obtained emulsifiable concentrate was diluted at a predetermined concentration with distilled water, and the obtained dilution was used.
Seedlings (having 3 to 4 leaves) of an eggplant grown on a pot were inoculated with green peach aphids and the insects were allowed to grow. The number of the insects was counted. A chemical dilution having a concentration of 100 ppm, prepared in the same manner as described in Test 1, was applied with a spray gun at a rate of 10 ml per pot. Then, the pot was placed in a glass green house. After 24 hours, the number of living insects was counted and the mortality was calculated.
The test was made on three pots, and the average value was calculated. In Table 6, mark "A" indicates a mortality higher than 95%, mark "B" indicates a mortality of 80 to 95%, mark "C" indicates a mortality of 50 to 80%, and mark "D" indicates a mortality lower than 50%.

For a further data set, the system named is two-spotted spider mite. Put plainly: Test 6: Effect on Two-Spotted Spider mite adults. Type of data set: in vivo. The conditions noted are these: Tetranychus urticae; 500 ppm; adults; 24 hours; read-out: Mortality (%). Summed up: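 Kidney bean leaf discs (15 mm) on wet cotton, each holding 10 adult mites, sprayed with 3 ml of a 500 ppm dilution of an emulsifiable concentrate. Kept at 25° C; dead adults counted after 24 hours to give mortality, averaged over three discs.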

A further data set relates to German cockroach. Put plainly: Test 7: Effect on German Cockroach. The data set is classed as in vivo. The conditions noted are these: Blattella germanica, male adults, 24 hours, agonized and killed; for mortality at 10 mg/m2: 10 mg/m^2; for mortality at 50 mg/m2: 50 mg/m^2. The method, boiled down: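 Dish bottoms were treated with 50 or 10 mg/m^2 of test compound and air-dried, then 10 male adult cockroaches were released per dish and held at 25° C. Agonized and killed adults were counted after 24 hours, averaged over two dishes.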

Data set [2] concerns resistant green rice leafhopper (collected at Nakagawara). Nature of the data set: Test 3: Effect on Resistant Green Rice Leafhopper. Type of data set: in vivo, Nephotettix cincticeps Uhler. The conditions noted are these: Nephotettix cincticeps, 24 h, read-out: Mortality (%) Green Rice Leafhopper Collected at Nakagawara. The method, boiled down: (§1)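 Rice seedlings (2–3 leaves) sprayed with emulsifiable-concentrate dilutions at 100 or 20 ppm, 3 ml per pot, air-dried, then infested with 10 female adults per pot. Mortality counted after 24 h and averaged over three pots.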

The test system of data set [3] is sensitive green rice leafhopper (collected at Chigasaki). Nature of the data set: Test 3: Effect on Sensitive Green Rice Leafhopper. Type of data set: in vivo. The conditions noted are these: Nephotettix cincticeps, female adults, 24 hours. The method, boiled down:
as §1

Data set [4] deals with third-instar larvae of diamond back moth. Put plainly: Test 4: Effect on Diamond Back Moth. The conditions noted are these: Plutella xylostella, 24 hours. The data set is classed as in vivo. The method, boiled down: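 Emulsifiable concentrate diluted in water to 100 or 20 ppm and sprayed at 3 ml per cup onto cabbage leaves holding 10 third-instar diamondback moth larvae. Dead and living larvae counted after 24 h; mortality averaged over three cups.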

Data set [5] concerns Second-instar and fifth-instar larvae of tobacco cutworm. Nature of the data set: Test 2: Tobacco Cutworm Larva Dipping Test. Type of data set: in vivo.
[6] abbreviates: topical, 24 h, read-out: Mortality (%) Fifth-Instar Larvae.

Values after ≈ are worked out from the molar mass of the structure shown. Like-named read-outs stand apart in the source and are kept apart here.

`CC(C)(COCc1ccc(F)c(Oc2cccc(Cl)c2)c1)c1ccc(Cl)cc1` [Compound 9, 3-(3-Chlorophenoxy)-4-fluorobenzyl 2-(4-chlorophenyl)-2-methylpropyl ether]: the LC50 at 48 h in “Test 8: Fish Toxicity” was above 1 µg/mL. Also, the LD50 at 168 h in data set [1] is above 500 mg/kg.

For the compound `CC(C)(COCc1ccc(F)c(Oc2ccccc2)c1)c1ccc(Oc2ccccc2)cc1` [Compound 52, 3-Phenoxy-4-fluorobenzyl 2-(4-phenoxyphenyl)-2-methylpropyl ether], the mortality at 100 ppm in the data set with green peach aphids is above 95%. For the same compound, the mortality at 500 ppm in the data set on two-spotted spider mite was determined as 100%. Also, in the data set on German cockroach, the mortality at 10 mg/m2 amounted to 100% and the mortality at 50 mg/m2 worked out at 100%. Also, the LC50 at 48 h in the data set “Test 8: Fish Toxicity” was above 1 µg/mL.

Take `CC(C)(COCc1ccc(F)c(Oc2ccccc2)c1)c1cc(Cl)cc(Cl)c1` [Compound 48, 3-Phenoxy-4-fluorobenzyl 2-(3,5-dichlorophenyl)-2-methylpropyl ether]: the mortality at 20 ppm in data set [2] and in [3] was 100% throughout. In addition, the mortality at 100 ppm was 100% in data set [2], 100% in [3] and 80 to 95% in the data set on green peach aphids. Besides, the LC50 at 48 h in the data set “Test 8: Fish Toxicity” is above 1 µg/mL. Besides, the LD50 at 168 h in data set [1] is above 500 mg/kg.

For `COc1ccc(C(C)(C)COCc2ccc(F)c(Oc3ccc(F)cc3)c2)cc1` [Compound 5, 3-(4-Fluorophenoxy)-4-fluorobenzyl 2-(4-methoxyphenyl)-2-methylpropyl ether], in [2], the mortality at 20 ppm was determined as 100% and the mortality at 100 ppm came out at 100%. In [3], this compound gave a mortality at 20 ppm of 100% and a mortality at 100 ppm of 100%. In addition, the LC50 at 48 h in the data set “Test 8: Fish Toxicity” was above 1 µg/mL. This compound gave an LD50 at 168 h in [1] above 500 mg/kg.

As for `CC(C)(COCc1cc(Oc2ccccc2)ccc1Br)c1ccc(Cl)cc1` [Compound 26, 3-Phenoxy-6-bromobenzyl 2-(4-chlorophenyl)-2-methylpropyl ether], the LC50 at 48 h in the data set “Test 8: Fish Toxicity” is above 10 µg/mL. In data set [1], the LD50 at 168 h is above 500 mg/kg.

On to `CCCCOc1ccc(C(C)(C)COCc2ccc(F)c(Oc3ccccc3)c2)cc1` [Compound 49], for which, in data set [2], the mortality at 20 ppm is 100% and the mortality at 100 ppm stood at 100%. For the same compound, in [3], the mortality at 20 ppm stood at 100% and the mortality at 100 ppm turned out to be 100%. For the same compound, the mortality at 100 ppm in the data set on green peach aphids was above 95%. In the data set on German cockroach, this compound yielded a mortality at 10 mg/m2 of 100% and a mortality at 50 mg/m2 of 100%. Moreover, the LC50 at 48 h in “Test 8: Fish Toxicity” is around 0.5 µg/mL (≈ 1.18 µM).

Consider `CC(C)(COCc1ccc(F)c(Oc2ccccc2)c1)c1ccc(Cl)c(Cl)c1` [Compound 14, 3-Phenoxy-4-fluorobenzyl 2-(3,4-dichlorophenyl)-2-methylpropyl ether], for which, in [4], the mortality at 20 ppm was determined as 100% and the mortality at 100 ppm is 100%. Further, in the data set on two-spotted spider mite, the mortality at 500 ppm was determined as 100%. For the same compound, in the data set “Test 8: Fish Toxicity”, the LC50 at 48 h was above 1 µg/mL.

`CC(C)(COCc1ccc(F)c(Oc2ccccc2)c1)c1ccccc1` [Compound 2, 3-Phenoxy-4-fluorobenzyl 2-phenyl-2-methylpropyl ether]: the mortality at 20 ppm worked out at 100% in data set [5] (20 ppm, second-instar larvae, 24 hours, read-out: Mortality (%) Second-Instar Larvae); 100% in [5] (setting [6]); 100% in data set [2]; 100% in [3]; 100% in data set [4]. In addition, the mortality at 100 ppm in [5] (100 ppm, second-instar larvae, 24 hours, read-out: Mortality (%) Second-Instar Larvae) was 100%; in data set [5] (setting [6]), 100%; in data set [2] it was 100%; in data set [3], 100%; in [4], 100%; with green peach aphids, above 95%. This compound showed a mortality at 10 mg/m2 in the data set on German cockroach of 100%. Besides, in the data set on German cockroach, the mortality at 50 mg/m2 came out at 100%. In the data set “Test 8: Fish Toxicity”, the LC50 at 48 h was above 1 µg/mL. Further, in data set [1], the 50% lethal dose (LD50) at 168 h is above 500 mg/kg.

On to `Cc1ccc(C(C)(C)COCc2cc(Oc3ccccc3)ccc2Cl)cc1` [Compound 31, 3-Phenoxy-6-chlorobenzyl 2-(4-methylphenyl)-2-methylpropyl ether], for which, in “Test 8: Fish Toxicity”, the LC50 at 48 h is above 10 µg/mL. The LD50 at 168 h in data set [1] is above 500 mg/kg.

For the compound `COCSc1ccc(C(C)(C)COCc2ccc(F)c(Oc3ccccc3)c2)cc1` [Compound 60, 3-Phenoxy-4-fluorobenzyl 2-(4-methoxymethylthiophenyl)-2-methylpropyl ether], the mortality at 20 ppm in data set [2] came to 100%; in data set [3], 90%; in data set [4], 95%. For the same compound, the mortality at 100 ppm is 100% in [2], 100% in data set [3], 100% in data set [4] and above 95% in the data set on green peach aphids. Moreover, in the data set with German cockroach, the mortality at 10 mg/m2 was found to be 100%. Moreover, the mortality at 50 mg/m2 in the data set with German cockroach is 100%. The LC50 at 48 h in “Test 8: Fish Toxicity” is above 1 µg/mL.

For `CCC(C)(COCc1ccc(F)c(Oc2ccccc2)c1)c1ccc(Cl)cc1` (stereo not shown) [Compound 20, 3-Phenoxy-4-fluorobenzyl 2-(4-chlorophenyl)-2-methylbutyl ether], in data set [2], the mortality at 20 ppm came to 100% and the mortality at 100 ppm came out at 100%. Moreover, in data set [3], the mortality at 20 ppm worked out at 100% and the mortality at 100 ppm was 100%. Further, in data set [4], the mortality at 20 ppm came to 100% and the mortality at 100 ppm came out at 100%. Besides, the mortality at 500 ppm in the data set with two-spotted spider mite was determined as 100%. Besides, in the data set with German cockroach, the mortality at 10 mg/m2 amounted to 100% and the mortality at 50 mg/m2 turned out to be 100%. Besides, the LC50 at 48 h in “Test 8: Fish Toxicity” is above 1 µg/mL. For the same compound, the LD50 at 168 h in data set [1] was above 500 mg/kg.

In data set [4], `CCCCCOc1ccc(C(C)(C)COCc2ccc(F)c(Oc3ccccc3)c2)cc1` [Compound 38, 3-Phenoxy-4-fluorobenzyl 2-(4-n-pentyloxyphenyl)-2-methylpropyl ether] registered a mortality at 20 ppm of 100% and a mortality at 100 ppm of 100%. Also, the mortality at 100 ppm with green peach aphids was above 95%. Besides, the mortality at 500 ppm in the data set on two-spotted spider mite worked out at 100%. Moreover, in the data set on German cockroach, the mortality at 10 mg/m2 was determined as 100% and the mortality at 50 mg/m2 came out at 100%. Also, the LC50 at 48 h in the data set “Test 8: Fish Toxicity” was above 1 µg/mL.

For the compound `CCOc1ccc(C(C)(C)COCc2ccc(F)c(Oc3ccc(Br)cc3)c2)cc1` [Compound 68, 3-(4-Bromophenoxy)-4-fluorobenzyl 2-(4-ethoxyphenyl)-2-methylpropyl ether], the mortality at 20 ppm in data set [2], in [3] and in [4] was 100% each time. Besides, the mortality at 100 ppm was 100% in data set [2], 100% in data set [3], 100% in [4] and above 95% in the data set with green peach aphids. Moreover, the LC50 at 48 h in the data set “Test 8: Fish Toxicity” is above 1 µg/mL. This compound also returned an LD50 at 168 h in [1] above 500 mg/kg.

Take `CC(C)(COCc1cc(Oc2ccccc2)ccc1Cl)c1ccc(Cl)cc1` [Compound 7, 3-phenoxy-6-chlorobenzyl 2-(4-chlorophenyl)-2-methylpropyl ether]: the LC50 at 48 h in the data set “Test 8: Fish Toxicity” was above 10 µg/mL. For the same compound, the LD50 at 168 h in [1] is above 500 mg/kg.

`Cc1ccc(C(C)(C)COCc2ccc(F)c(Oc3ccccc3)c2)cc1` [Compound 28, 3-phenoxy-4-fluorobenzyl 2-(4-methylphenyl)-2-methylpropyl ether]: the mortality at 20 ppm in data set [2], in data set [3] and in data set [4] was 100% throughout. Also, the mortality at 100 ppm in data set [2] is 100%; in data set [3], 100%; in data set [4] it was 100%; in the data set on green peach aphids it was above 95%. In the data set on German cockroach, the mortality at 10 mg/m2 is 100%. Further, in the data set on German cockroach, the mortality at 50 mg/m2 is 100%. The LC50 at 48 h in the data set “Test 8: Fish Toxicity” is above 1 µg/mL.
